In patent US12264156B2, “Compounds and pharmaceutical compositions thereof for the treatment of diseases” (GALAPAGOS NV, priority 2018, dated 2025):

What was measured:
Type in all cases: biochemical
Details in all cases: ADP-Glo SIK kinase assay
[1] = target: T1, SIK1 (Homo sapiens, UniProt P57059); assay: ADP-Glo kinase assay, SIK1
T1 construct: purchased Carna Biosciences 02-131
Procedure: (§1) The ADP-Glo™ kinase assay is a luminescent technology assay which measures the ADP formed from a kinase reaction. […] In a second step the kinase reactions are terminated and all the remaining ATP is depleted. In a final step the ADP is converted into ATP and this newly synthesized ATP is measured by using a luciferase/luciferin reaction. The generated light is measured using an Envision plate reader, wherein the luminescent signal obtained positively correlates with the kinase activity.
(§2) 1% DMSO and 10 μM staurosporine final concentrations are used as negative and positive controls.
(§3) 2 μL enzyme-substrate mixture is added to the assay plates.
(§4) The reaction is started by adding 2 μL diluted ATP on the assay plates. Plates are centrifuged for a few seconds at 1000 rpm and gently shaken for 2 min followed by an incubation at RT for 120 min.
(§5) The reactions are stopped and the unconsumed ATP is depleted by adding 5 μL ADP-Glo Reagent (Promega, Cat #V912B) to the reaction. The plates are centrifuged for a few seconds at 1000 rpm and incubated at RT for 40 min (ATP depletion).
(§6) The ADP is converted to ATP and luciferase and luciferin is introduced to detect ATP by adding 10 μL Kinase Detection Reagent (Promega, Cat #V913B+V914B) to the reaction. The plates are centrifuged for a few seconds at 1000 rpm and incubated at RT for 30 min (ADP detection).
(§7) Luminescence is measured on an Envision plate reader (PerkinElmer Inc.).

[2] = target: T2, SIK2 (Homo sapiens, UniProt Q9H0K1); assay: ADP-Glo kinase assay, SIK2
T2 construct: purchased ThermoFisher Scientific PV4792
Procedure: as §1, §2, §3, §4, §5, §6, §7

[3] = target: T3, SIK3 (Homo sapiens, UniProt Q9Y2K2); assay: ADP-Glo kinase assay, SIK3
T3 construct: purchased SignalChem S12-11G-100
Procedure: as §1, §2, §3, §4, §5, §6, §7

T1 sequence (P57059 whole entry): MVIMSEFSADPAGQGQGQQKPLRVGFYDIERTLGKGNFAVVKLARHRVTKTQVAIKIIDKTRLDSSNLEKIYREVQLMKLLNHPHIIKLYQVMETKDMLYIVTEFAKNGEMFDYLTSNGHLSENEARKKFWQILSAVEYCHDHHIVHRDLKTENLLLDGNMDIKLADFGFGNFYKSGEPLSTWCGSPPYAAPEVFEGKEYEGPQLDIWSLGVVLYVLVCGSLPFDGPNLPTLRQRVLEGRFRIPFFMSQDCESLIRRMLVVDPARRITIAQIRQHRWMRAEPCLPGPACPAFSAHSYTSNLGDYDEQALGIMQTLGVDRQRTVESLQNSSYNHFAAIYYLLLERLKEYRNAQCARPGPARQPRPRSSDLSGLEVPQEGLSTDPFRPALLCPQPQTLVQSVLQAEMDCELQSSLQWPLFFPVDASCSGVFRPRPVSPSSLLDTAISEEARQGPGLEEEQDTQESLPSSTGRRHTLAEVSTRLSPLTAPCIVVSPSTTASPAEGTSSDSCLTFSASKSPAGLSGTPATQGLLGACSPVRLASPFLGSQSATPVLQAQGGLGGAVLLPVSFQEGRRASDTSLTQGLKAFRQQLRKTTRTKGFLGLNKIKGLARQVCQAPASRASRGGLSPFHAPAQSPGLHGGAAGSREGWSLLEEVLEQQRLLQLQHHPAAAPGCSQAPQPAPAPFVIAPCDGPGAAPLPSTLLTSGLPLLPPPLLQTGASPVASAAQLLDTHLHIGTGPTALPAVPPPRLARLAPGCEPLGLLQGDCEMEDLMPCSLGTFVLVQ
T2 sequence (Q9H0K1 whole entry): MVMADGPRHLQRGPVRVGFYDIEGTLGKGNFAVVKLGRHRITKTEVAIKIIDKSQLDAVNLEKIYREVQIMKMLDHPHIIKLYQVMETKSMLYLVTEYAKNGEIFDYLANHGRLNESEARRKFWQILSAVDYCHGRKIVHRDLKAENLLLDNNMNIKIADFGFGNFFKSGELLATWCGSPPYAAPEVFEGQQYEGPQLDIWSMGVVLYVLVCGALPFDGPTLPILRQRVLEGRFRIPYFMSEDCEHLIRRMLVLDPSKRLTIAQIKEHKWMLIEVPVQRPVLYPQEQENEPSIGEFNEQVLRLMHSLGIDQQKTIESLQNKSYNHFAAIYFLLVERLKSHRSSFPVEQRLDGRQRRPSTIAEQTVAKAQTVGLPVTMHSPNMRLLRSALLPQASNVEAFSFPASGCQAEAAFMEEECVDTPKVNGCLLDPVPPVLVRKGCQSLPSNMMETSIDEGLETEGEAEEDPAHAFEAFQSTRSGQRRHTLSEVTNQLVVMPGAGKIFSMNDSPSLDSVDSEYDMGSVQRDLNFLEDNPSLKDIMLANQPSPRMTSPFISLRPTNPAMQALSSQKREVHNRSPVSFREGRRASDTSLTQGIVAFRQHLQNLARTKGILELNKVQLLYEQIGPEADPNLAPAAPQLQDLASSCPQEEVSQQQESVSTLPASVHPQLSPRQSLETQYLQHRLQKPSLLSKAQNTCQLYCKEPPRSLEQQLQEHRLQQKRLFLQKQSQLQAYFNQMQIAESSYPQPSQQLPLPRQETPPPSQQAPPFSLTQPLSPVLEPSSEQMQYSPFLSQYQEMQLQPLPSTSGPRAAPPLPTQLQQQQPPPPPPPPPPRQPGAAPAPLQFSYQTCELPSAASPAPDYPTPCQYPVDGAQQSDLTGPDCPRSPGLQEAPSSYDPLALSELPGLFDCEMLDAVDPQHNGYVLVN
T3 sequence (Q9Y2K2 whole entry): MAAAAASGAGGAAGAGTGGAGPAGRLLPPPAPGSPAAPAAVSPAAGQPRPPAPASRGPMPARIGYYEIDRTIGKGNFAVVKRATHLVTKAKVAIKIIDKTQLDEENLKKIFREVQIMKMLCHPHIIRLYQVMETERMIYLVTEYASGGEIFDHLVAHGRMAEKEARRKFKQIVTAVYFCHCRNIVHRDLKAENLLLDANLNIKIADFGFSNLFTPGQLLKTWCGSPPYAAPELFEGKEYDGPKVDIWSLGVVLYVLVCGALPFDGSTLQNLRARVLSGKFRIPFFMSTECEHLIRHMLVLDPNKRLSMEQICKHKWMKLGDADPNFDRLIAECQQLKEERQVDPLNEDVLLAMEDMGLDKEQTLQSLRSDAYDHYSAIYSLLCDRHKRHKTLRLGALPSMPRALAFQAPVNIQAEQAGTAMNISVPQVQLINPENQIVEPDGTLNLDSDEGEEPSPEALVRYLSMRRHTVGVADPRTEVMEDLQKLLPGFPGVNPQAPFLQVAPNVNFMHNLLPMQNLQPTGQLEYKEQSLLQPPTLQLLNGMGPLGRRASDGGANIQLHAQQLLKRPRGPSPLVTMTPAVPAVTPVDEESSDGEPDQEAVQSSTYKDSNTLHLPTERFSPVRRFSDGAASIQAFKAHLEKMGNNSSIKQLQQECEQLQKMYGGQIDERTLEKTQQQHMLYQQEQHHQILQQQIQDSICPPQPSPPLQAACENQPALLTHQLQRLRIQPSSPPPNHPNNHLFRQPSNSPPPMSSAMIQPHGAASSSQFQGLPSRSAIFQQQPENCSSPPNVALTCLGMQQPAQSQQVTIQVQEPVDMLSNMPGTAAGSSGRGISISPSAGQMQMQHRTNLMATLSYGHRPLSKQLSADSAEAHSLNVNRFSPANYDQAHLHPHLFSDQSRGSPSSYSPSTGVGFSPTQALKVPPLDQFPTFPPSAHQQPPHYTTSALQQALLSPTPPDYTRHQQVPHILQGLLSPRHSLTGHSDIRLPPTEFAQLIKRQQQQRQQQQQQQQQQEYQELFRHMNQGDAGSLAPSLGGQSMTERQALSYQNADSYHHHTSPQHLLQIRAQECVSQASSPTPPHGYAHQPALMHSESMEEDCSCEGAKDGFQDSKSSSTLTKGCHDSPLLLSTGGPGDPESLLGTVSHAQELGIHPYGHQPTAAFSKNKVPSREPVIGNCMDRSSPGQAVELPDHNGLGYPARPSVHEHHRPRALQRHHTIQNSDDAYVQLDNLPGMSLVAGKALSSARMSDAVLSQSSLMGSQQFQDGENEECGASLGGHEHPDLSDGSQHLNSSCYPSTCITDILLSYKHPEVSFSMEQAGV

Compound | IC50 [1] [nM] | IC50 [2] [nM] | IC50 [3] [nM]
COc1cc(-c2cnc3cc(OCCN4CCOCC4)ccn23)cc2ccn(CC(F)(F)F)c(=O)c12 [Cpd 221, 8-methoxy-6-[7-(2-morpholinoethoxy)imidazo [1,2-a]pyridin-3-yl]-2-(2,2,2-trifluoroethyl) isoquinolin-1-one] | > 500 | 10 to 100 | 10 to 100
O=C1c2c(cc(-c3cnc4cc(OCCN5CCOCC5)ccn34)cc2OC(F)F)CCN1CC(F)F [Cpd 247, 2-(2,2-difluoroethyl)-8-(difluoromethoxy)-6-[7-(2-morpholinoethoxy)imidazo[1,2-a]pyridin-3-yl]-3,4-dihydroisoquinolin-1-one] | 100 to 500 | 0.01 to 10 | 0.01 to 10
COc1cc(-c2cnc3cc(OCC4(C)CNC4)ccn23)cc2c1C(=O)N(CC(F)(F)F)CC2 [Cpd 251, 8-methoxy-6-[7-[(3-methylazetidin-3-yl)methoxy]imidazo [1,2-a]pyridin-3-yl]-2-(2,2,2-trifluoroethyl)-3,4-dihydroisoquinolin-1-one] | 100 to 500 | 10 to 100 | 0.01 to 10
COc1cc(-c2cnc3cc(OCC4(C)CN(C)C4)ccn23)cc2c1C(=O)N(CC(F)(F)F)CC2 [Cpd 253, 6-[7-[(1,3-dimethylazetidin-3-yl)methoxy]imidazo[1,2-a]pyridin-3-yl]-8-methoxy-2-(2,2,2-trifluoroethyl)-3,4-dihydroisoquinolin-1-one] | > 500 | 10 to 100 | 0.01 to 10

More lines, now with the values ahead:

IC50 [1] [nM] | IC50 [2] [nM] | IC50 [3] [nM] | Compound
10 to 100 | 0.01 to 10 | 0.01 to 10 | COc1cc(-c2cnc3cc(OCCN4CCC(F)(F)CC4)ccn23)cc(OC(F)F)c1C(=O)NC1CC1 [Cpd 181, N-cyclopropyl-2-(difluoromethoxy)-4-[7-[2-(4,4-difluoro-1-piperidyl)ethoxy]imidazo [1,2-a]pyridin-3-yl]-6-methoxy-benzamide]
10 to 100 | 10 to 100 | 0.01 to 10 | COc1cc(-c2cnc3cc(OCC4CCCCN4CC(F)(F)F)ccn23)cc(OC(F)F)c1C(=O)NC1CC1 (stereo not drawn) [Cpd 182, N-cyclopropyl-2-(difluoromethoxy)-6-methoxy-4-[7-[[1-(2,2,2-trifluoroethyl)-2-piperidyl]methoxy]imidazo[1,2-a]pyridin-3-yl]benzamide]
0.01 to 10 | 0.01 to 10 | 0.01 to 10 | COc1cc(-c2cnc3cc(OCCN(C)c4ccccn4)ccn23)cc(OC(F)F)c1C(=O)NC1CC1 [Cpd 183, N-cyclopropyl-2-(difluoromethoxy)-6-methoxy-4-[7-[2-[methyl(2-pyridyl)amino]ethoxy]imidazo[1,2-a]pyridin-3-yl]benzamide]
0.01 to 10 | 0.01 to 10 | 0.01 to 10 | COc1cc(-c2cnc3cc(OCCN(C)c4ccccc4)ccn23)cc(OC(F)F)c1C(=O)NC1CC1 [Cpd 184, N-cyclopropyl-2-(difluoromethoxy)-6-methoxy-4-[7-[2-(N-methylanilino)ethoxy]imidazo[1,2-a]pyridin-3-yl]benzamide]
10 to 100 | 0.01 to 10 | 0.01 to 10 | COc1cc(-c2cnc3cc(OCC4(F)CN(C(=O)OC(C)(C)C)C4)ccn23)cc(OC(F)F)c1C(=O)NC1CC1 [Cpd 187, tert-butyl 3-[[3-[4-(cyclopropylcarbamoyl)-3-(difluoromethoxy)-5-methoxy-phenyl]imidazo[1,2-a]pyridin-7-yl]oxymethyl]-3-fluoro-azetidine-1-carboxylate]
10 to 100 | 0.01 to 10 | 0.01 to 10 | COc1cc(-c2cnc3cc(OCC4(C)CN(C(=O)OC(C)(C)C)C4)ccn23)cc(OC(F)F)c1C(=O)NC1CC1 [Cpd 188, tert-butyl 3-[[3-[4-(cyclopropylcarbamoyl)-3-(difluoromethoxy)-5-methoxy-phenyl]imidazo[1,2-a]pyridin-7-yl]oxymethyl]-3-methyl-azetidine-1-carboxylate]
